Results as given in US20220054532A1, “VETERINARY COMPOSITIONS AND METHODS OF USE THEREFOR” (priority 2019, published 2022).

Assays:
Type in all cases: in vivo
[1] = test system: dogs suffering from osteoarthritis; assay: Example 9: pain relief and side effects in canine osteoarthritis (CBD Complex); details: dogs with osteoarthritis, 4 weeks of administration, group average
Description: This example examines the ability of various compositions to minimize pain and examines the level of adverse side effects of each composition.
At the outset of the study, participants receive a full physical examination, including weight measurement, thigh circumference, and CBC/blood chemistries. Because osteoarthritis is not only a disease of pain, but one characterized by behavioral, appetite, anxiety/aggression, family socialization, and sleep aberrations, the pet's owners are familiarized with the pain scale (canine orthopedic index) and additional behavioral assessment log.
The patient group is twenty-four dogs suffering from osteoarthritis, broken into eight groups of three dogs. The first group receives a control composition with no active agent; the second group receives a composition comprising HA as the sole active agent; the third group receives a composition comprising HMW HA as the sole active agent; the fourth group receives a composition comprising CBD as the sole active agent; the fifth group receives a composition comprising HA and CBD as the active agents; the sixth group receives a composition comprising HMW HA and CBD Complex as the active agents; the seventh group receives a composition comprising Rimadyl as the active agent; and the eighth group receives a composition comprising Meloxicam as the active agent.
Each composition is administered for a period of four (4) weeks. The owner completes the electronic log questionnaire each week. At the end of the 4-week study, participants have another full physical examination, including weight measurement, thigh circumference, and CBC/blood chemistries, with an exit interview of the owners to gain final impressions.
Each group is evaluated for pain scores and the scores averaged. The following scores are observed and the results depicted in FIG. 9: […]

[2] = test system: dogs suffering from cognitive dysfunction syndrome; assay: Example 2: cognitive decline, Cognitive Dysfunction Screening Checklist; details: for Average Initial Score: day 0 (before treatment); for Average Final Score: day 60, BID
Description: This example examines the ability of embodiments of the invention versus Anipryl® to treat cognitive decline.
The patient group is twenty dogs suffering from cognitive dysfunction syndrome, as determined by the Cognitive Dysfunction Screening Checklist. See G. Landsberg et al., 2003 HANDBOOK OF BEHAVIOR PROBLEMS OF THE DOG AND CAT (Elsevier Science Limited) (2003). The twenty dogs are broken into five groups of four dogs. The first group receives Anipryl® as the sole active agent; the second group receives a composition comprising HMW HA as the sole active agent; the third group receives a composition comprising CBD as the sole active agent; the fourth group receives a composition comprising HMW HA and CBD as the active agents; and the fifth group receives a composition comprising HMW HA, CBD, nicotinamide adenine dinucleotide (“NAD”), and phosphatidylserine as the active agents.
Each composition is administered for a period of sixty (60) days, twice per day (“BID”). The owner completes the Checklist on days 0 (“Initial Score”), 15, 30, 45, and 60 (“Final Score”) of treatment.
Each group is evaluated and Checklist scores averaged. The following scores are observed and the results depicted in FIG. 2: […]

[3] = test system: cats suffering from joint inflammation; assay: Example 4: joint inflammation, thermal imaging (feline); details: over the inflamed joint, 60 days BID
Description: This example examines the ability of embodiments of the invention versus Cosequin® to treat joint inflammation.
The first patient group is twenty dogs suffering from joint inflammation. The second patient group is twenty cats suffering from joint inflammation. The third patient group is twenty horses suffering from joint inflammation. Each patient group is broken into five groups of four animals. The first groups receive Cosequin® as the sole active agent; the second groups receive a composition comprising HMW HA as the sole active agent; the third groups receive a composition comprising CBD as the sole active agent; the fourth groups receive a composition comprising HMW HA and CBD as the active agents; and the fifth groups receive a composition comprising HMW HA, CBD, Boswellia, and superoxide dismutase (“SOD”) as the active agents.
Each composition is administered for a period of sixty (60) days, BID. Efficacy is determined by a decrease in body temperature over the inflamed joint, as measured by thermal imaging (e.g., via Digatherm device). Thermal imaging is performed on days 0 (“Initial Score”), 15, 30, 45, and 60 (“Final Score”) of treatment.
The following feline scores are observed and the results depicted in FIG. 4b: […]

[4] = test system: cats suffering behavior aberrations and/or anxiety; assay: Example 5: behavior aberrations and anxiety, Fe-BARQ (feline); details: Fe-BARQ day 0 vs 60, SID, 0 (no improvement) to 3 (marked improvement)
Description: This example examines the ability of embodiments of the invention versus Clomicalm® to reduce behavior aberrations and anxiety.
The first patient group is twenty dogs suffering behavior aberrations and/or anxiety, as determined by the canine behavioral assessment and research questionnaire (“C-BARQ”). See, e.g., P. Wiener et al., Use of questionnaire-based data to assess dog personality, 16 JOURNAL OF VETERINARY BEHAVIOR 81-85 (2016). The second patient group is twenty cats suffering behavior aberrations and/or anxiety, as determined by the feline behavioral assessment and research questionnaire (“Fe-BARQ”).
Each group is broken into five groups of four animals. The first group receives Clomicalm® as the sole active agent; the second group receives a composition comprising HMW HA as the sole active agent; the third group receives a composition comprising CBD as the sole active agent; the fourth group receives a composition comprising HMW HA and CBD as the active agents; and the fifth group receives a composition comprising HMW HA, CBD, valerian root, and scutillaria as the active agents.
Each composition is administered for a period of sixty (60) days, once a day (“SID”). Owners complete the species-appropriate C-BARQ or Fe-BARQ on days 0 and 60 of treatment. The results from the overall questionnaire are averaged and characterized as no improvement (score of 0), mild improvement (score of 1), moderate improvement (score of 2), or marked improvement (score of 3).
The following feline scores are observed and the results depicted in FIG. 5b: […]

[5] = test system: cats suffering from GI-specific inflammation; assay: Example 11: GI-specific inflammation, owner-rated symptom reduction; details: species not given, symptom reduction score 0 to 4; for Final Score: after 28 days BID
Description: This example examines the ability of embodiments of the invention versus Pepcid® to treat unwanted GI-specific inflammation characterized by gastritis, reflux, vomiting, diarrhea, and inappetence.
The first patient group is twenty dogs suffering from GI-specific inflammation. The second patient group is twenty cats suffering from GI-specific inflammation. Each patient group is broken into five groups of four animals. The first groups receive Pepcid® as the sole active agent; the second groups receive a composition comprising HMW HA as the sole active agent; the third groups receive a composition comprising CBD as the sole active agent; the fourth groups receive a composition comprising HMW HA and CBD Complex as the active agents; and the fifth groups receive a composition comprising HMW HA, CBD Complex, and glutathione as the active agents.
Each composition is administered for a period of twenty-eight (28) days, BID. The owner observes potential reduction of symptoms at the end of treatment and rates the reduction as no reduction (score of 0), mild reduction (score of 1), moderate reduction (score of 2), significant reduction (score of 3), or resolution of symptoms (score of 4).

Compound | Average Pain Score [1] | Average Side Effect Score [1] | Average Pain Score ([1]; listed as CBD alone) | Average Side Effect Score ([1]; listed as CBD alone) | Average Initial Score [2] | Average Final Score [2] | Reduction in Temperature (° F.) [3] [° F.] | Improvement Score [4] | Final Score [5] | Initial Score [5] | Average Pain Score ([1]; listed as HMW HA alone) | Average Side Effect Score ([1]; listed as HMW HA alone)
C=C(C)[C@@H]1CCC(C)=C[C@H]1c1c(O)cc(CCCCC)cc1O [CBD Alone, 2-[(1R,6R)-3-methyl-6-prop-1-en-2-ylcyclohex-2-en-1-yl]-5-pentylbenzene-1,3-diol] | 19 | 0.5 | not especially effective in reducing pain | even lower degree of adverse side effects | 3 | 1.5 | 2.0 | 1.8 | 2 | 0 | – | –
hyaluronic acid [HMW HA Alone] | 16 | 4 | – | – | 3 | 2 | 2.3 | 1 | 3 | 0 | only slightly reduce pain | low degree of adverse side effects
